Read-outs that look alike come from different tables or passages of the source. Peptide text beside a SMILES is read from it.
Assays:
Assay type in all cases: in vivo, Sprague Dawley rats
[1] = test system: SD rats; experiment: Histopathologic examination (H&E) of vital organs; details: s.c. 10.0 mg/kg daily x14 d
Source text: After blood was collected at the predetermined time points, all rats were euthanized and subjected to a comprehensive general autopsy, which included a thorough examination of the external surface of the body, all foramen, cranial cavity, external surface of the brain, chest, abdomen, pelvic cavity, viscera, cervix, and genitalia. The adrenal gland, brain (brain, cerebellum, and brain stem), epididymis, heart, kidney, liver, ovary, spleen, testis, thymus, thyroid gland, and uterus were carefully collected, weighed, and documented before being kept in 10% neutral formalin buffer (10% NBF).
The H&E staining was followed as reported elsewhere. Following formalin fixation, the important tissues were dehydrated, stained with hematoxylin (about 15 minutes) and eosin (1–3 minutes), dehydrated again with gradient alcohol, clarified in xylene, and then examined and recorded under the microscope.

[2] = Pharmacokinetics of single subcutaneous injection of F3 (1.0 mg/kg); details: single s.c. 1.0 mg/kg, plasma, LC-MS/MS; for AUC(0-inf) / AUC(0-t) / Cmax / Tmax / half-life / CL/F / MRT: Sprague-Dawley, rat, sc; for CL/F: read-out: Cl_F_obs (clearance rate) (converted); for MRT: read-out: MRTInf_obs (mean residence time)
Procedure: A single subcutaneous injection of 1.0 mg/kg F3 was given to a total of 12 SD rats (6 females, 6 males). Before and after F3 administration, whole blood samples were collected at predetermined time intervals (0, 0.5, 1, 2, 4, 6, 8, 24, 48, 72, 96, 144, and 192 hr). At each time point, at least 0.5 ml blood samples were taken alternatively from 3M/3F rats.
The concentration of F3 in rat plasma was determined by liquid chromatography-tandem mass spectrometry, using the method established by Kanglong Huacheng Co., Ltd. The analyte was assayed by liquid chromatography coupled with the tandem mass spectrometry (LC-MS/MS) method. The LC-MS/MS system consisted of a Shimadzu HPLC system (Kyoto, Japan) and an LCMS-8060 instrument (serial no. 011105500332 AE). The following were the LC conditions: column, HALO ES-C18 2.7 µ C18 160A (50 × 2.1 mm); gradient elution at 0.5 mL/min with 5% acetonitrile in water containing 0.1% formic acid or 95% acetonitrile in water containing 0.1% formic acid; and injection volume of 10 µL. A multiple reaction monitoring (MRM) method was selected for quantitative analysis. For analyte and internal standard, the optimum transitions were 519.50 > 129.15 (five charges) and 649.15 > 120.10 (four charges), 393.20 > 373.25, and 237.15 > 194.15, respectively. The instrumental parameters were set as follows: nebulizing gas flow was 3 L/min; heating gas flow was 10 L/min; interface temperature was 300°C; DL temperature was 250°C; and heat block temperature was 400°C.
PK parameters were estimated by a noncompartmental model with the calculation model of “Linear Trapezoidal Linear Interpolation” using WinNonlin (Phoenix TM, version 8.1). If the plasma F3 was detected, the following pharmacokinetic parameters were measured and calculated: Cmax (maximum blood concentration), Tmax (peak time), T1/2 (elimination half-life), AUC (area under plasma concentration-time curve), Vz_F_obs (apparent distribution volume), Cl_F_obs (clearance rate), and MRTInf_obs (mean residence time).

[3] = test system: SD rats; experiment: Food intake and body weight gain in acute toxicity study; details: single or repeated s.c. injection
Procedure: For 14 days, the body weight was measured before F3 administration on the first day of the experiment and once a week thereafter, with additional measurements on the day before and on the day of the planned autopsy. Food intake was recorded once a week. The rats were anesthetized by inhalation of 70% CO2/30% O2 before dissection, and blood samples were taken for hematology and biochemical analysis. The collected tissue was weighed and preserved for pathological examination.

With `CC[C@H](C)[C@H](NC(=O)[C@H](CO)NC(=O)CNC(=O)[C@H](CC(C)C)NC(=O)[C@@H](NC(=O)CNC(=O)[C@H](Cc1ccccc1)NC(=O)[C@H](CC(C)C)NC(=O)CN)C(C)C)C(=O)N[C@@H](C)C(=O)N[C@@H](CCCCN)C(=O)N[C@@H](Cc1c[nH]cn1)C(=O)N[C@H](C(=O)N[C@@H](CC(C)C)C(=O)N1CCC[C@H]1C(=O)N[C@@H](Cc1c[nH]cn1)C(=O)N[C@H](C(=O)N[C@H](C(=O)N1CCC[C@H]1C(=O)N[C@H](C(=O)N[C@H](C(=O)N[C@@H](C)C(=O)N[C@@H](CCC(=O)O)C(=O)N[C@@H](CCCCN)C(=O)N[C@@H](CC(C)C)C(N)=O)[C@@H](C)CC)C(C)C)C(C)C)C(C)C)C(C)C` [F3, Caerin 1.9] (H-GLFGVLGSIAKHVLPHVVPVIAEKL-NH2) the “histopathologic examination of essential organs” value [1] was “no apparent abnormalities”, the AUC(0-inf) ([2]; female SD rats) was 0.222 µg·h/mL and the AUC(0-t) ([2]; female SD rats) was 0.216 µg·h/mL. The Cmax ([2]; female SD rats) was 0.11 µg/mL, the Tmax ([2]; female SD rats) was 0.5 h and the half-life ([2]; female SD rats) was 0.677 h. The CL/F ([2]; female SD rats) was 4.5 L/h/kg, the MRT ([2]; female SD rats) was 1.42 h and the AUC(0-inf) ([2]; male SD rats) was 0.686 µg·h/mL. For the same compound, the AUC(0-t) ([2]; male SD rats) was 0.661 µg·h/mL, the Cmax ([2]; male SD rats) was 0.256 µg/mL and the Tmax ([2]; male SD rats) was 1 h. For the same compound, the half-life ([2]; male SD rats) was 1.16 h, the CL/F ([2]; male SD rats) was 1.46 L/h/kg and the MRT ([2]; male SD rats) was 2.05 h. It also gave an AUC_%Extrap_obs ([2]; female SD rats) of 2.88%, a T max ([2]; female SD rats) of 0.5 h and a T max ([2]; male SD rats) of 1 h. For the same compound, the “effect on food intake, body weight, and weight change” value [3] was “no effect”.

— article PMC9363195, “Preclinical Pharmacokinetics, Biodistribution, and Acute Toxicity Evaluation of Caerin 1.9 Peptide in Sprague Dawley Rats” (Evidence-based Complementary and Alternative Medicine : eCAM, 2022)
